Source: patent US5840893A, “Compounds for treating infectious diseases” (priority 1996, dated 1998)
“Also recorded” adds a separate entry of the source.

Legend:
[1] = biological target: T1, reverse transcriptase (HIV-1 M:B_HXB2R, UniProt P04585); experiment: Inhibition of reverse transcriptase; type: biochemical; details: data not shown
T1 construct: infection experiments used HIV-1 ADA virus supernatant

[2] = system: monocyte cultures; experiment: Cytotoxicity in monocyte cultures (LDH release, trypan blue exclusion); type: cell-based, human; details: up to 10 μM; LDH release and trypan blue exclusion
[3] = system: HIV-1; experiment: Inhibition of HIV-1 replication in cultured macrophages (Table I); type: cell-based; details: Human immunodeficiency virus 1, Macrophage; 50% inhibition of viral growth, RT or p24, macrophages
Protocol: A quantitative measurement of the activity of the compounds of the invention to block the replication of HIV-1 in non-dividing cells can be determined by culture of a macrophage-tropic strain of HIV-1 on peripheral blood-derived macrophages. The cells are cultured for 5-6 days prior to infection in a medium consisting of DMEM supplemented with 10% type A/B human serum and 200 U/ml Macrophage Colony Stimulating Factor, with half the medium changed after 3 days, to reach a density of about 10^6 cells per 5 ml well. A macrophage-tropic viral stock may be grown on these cells. The concentration of infectious particles in the stock is estimated by measurement of p24 antigen concentration.
To test the effect of compounds of the invention on HIV- 1 infection in the above-described culture system, the medium is removed and replaced with medium containing HIV-1 at a concentration of 1 ng of p24 (10^4 TCID50 /ml (TCID=tissue culture infectious doses)) and a known concentration of the compound of the invention (the inhibitor). After 24 hours, the cultures are washed to remove non-adherent virus and the culture is re-fed with medium containing the inhibitor at the desired concentration. The amount of replication of HIV-1 is estimated by an assay of the reverse transcriptase activity or by an assay of the concentration of p24 antigen in the culture medium every 2-3 days throughout the post-infection period. In a preferred embodiment the anti-HIV potency of the candidate drug is measured by comparison of the concentration of reverse transcriptase (RT) or of p24 antigen in the medium of the treated and control cultures at the time of the peak of these values in non-treated control cultures, that is about day 5 or 6 post-infection. Repetition at various levels of inhibitor allows for the calculation of the concentration of inhibitor that achieves 50% inhibition of viral growth, IC50. Table I discloses the IC50 of various inhibitors.

[4] = system: HIV-1ADA; experiment: RT activity in supernatant of HIV-1ADA-infected mitogen-stimulated peripheral blood leukocytes; type: cell-based, HIV-1ADA in human PBMC
Protocol: PBMCs were purified by Ficoll-Hypaque centrifugation and activated by 10 μg/ml PHA-P (Sigma) and 20 U/ml recombinant human IL-2 (rhIL-2) in RPMI 1640 supplemented with 10% FBS (HyClone). After 24 h incubation, cells were washed and inoculated with HIV-1ADA in RPMI 1640 supplemented with 10% FBS. After a 2 h adsorption, free virus was washed away and cells were cultured in RPMI 1640 supplemented with 10% FBS and 20 U/ml rhIL-2.
For the reverse transcriptase (RT) assay, 10 μl of culture supernatant was added to 40 μl of reaction mixture (final composition was 50 mM Tris-HCl, pH 7.8; 20 mM KCl; 5 mM MgCl2; 1 mM DTT; 0.1% Triton X-100; 0.2 OD/ml polyA; 0.2 OD/ml oligo(dT)12-18; and 40 μCi/ml ^3 H-dTTP (76 Ci/mmol, DuPont) and incubated 2 hr at 37° C. 5 μl of the reaction mixture was then spotted onto the DE 81 (Whatman) paper. Paper was air dried and washed 5 times with 5% Na2 HPO4, followed by rinsing with distilled water. After air drying, paper was put on a Flexi Filter plate (Packard), covered with scintillation fluid and counted in a Top Count Microplate Counter (Packard). Results are expressed as counts per minute in 1 ml of supernatant (cpm/ml).

[5] = system: nuclear importation of HIV-1 preintegration complexes; experiment: Nuclear importation of HIV-1 preintegration complexes (2-LTR circle PCR) in primary human monocytes; type: cell-based, HIV-1ADA in primary human monocytes; details: Monocyte, 100 nM, 48 and 96 hours post infection
Source text: The effects of Compound No. 2 on the nuclear importation of HIV-1 preintegration complexes can be directly measured by detecting the presence of circularized duplex HIV-1 genomic DNA. These duplex circles can be readily detected by PCR amplification using primers which span the junction of the circularized HIV-1 genome. Bukrinsky, M. I., et al., 1992, Proc.Natl.Acad.Sci. 89:6580-84.
Briefly, the efficiency of nuclear translocation was estimated by the ratio between the 2-LTR- and pol-specific PCR products, which reflects the portion of 2-LTR circle DNA molecules as a fraction of the entire pool of intracellular HIV-1 DNA. Viral 2-LTR circle DNA is formed exclusively within the nucleus of infected cells and thus is a convenient marker of successful nuclear translocation. […]
Total DNA was extracted from HIV-1-infected cells using the IsoQuick extraction kit (Microprobe Corp., Garden Grove, Calif.). DNA was then analyzed by PCR using primer pairs that amplify the following sequences: a fragment of HIV-1 (LTR/gag) that is the last one to be synthesized during reverse transcription and therefore represents the pool of full-length viral DNA molecules; a fragment of polymerase gene (pol); a 2-LTR junction region found only in HIV-1 2-LTR circle DNA molecules; or a fragment of the cellular a-tubulin gene. […]

Question: What does the source list for `CC(=O)c1cc(Nc2cc(C)[n+](C)c(N)n2)cc(C(C)=O)c1.[I-]` [Compound No. 2, 2-amino-4-(3,5-diacetylphenyl)amino-1,6-dimethylpyrimidinium iodide]?
Answer: inhibition of reverse transcriptase [1]: does not inhibit reverse transcriptase; cytotoxic effect [2]: without toxic effects; also recorded: no cytotoxic effect was observed; IC50 [3]: 1 nM; reduction in viral output ([4]; 1 and 10 μM, lower MOI (1 ng p24/10^6 cells), FIG. 3B): ~2 fold; anti-viral effect on activated PBLs / replicating cells ([4]; actively dividing cell populations, FIG. 3): much less expressed in these actively dividing cell populations; also recorded: No anti-viral effect was detected; effect on viral production ([4]; up to 10 μM, higher MOI (10 ng p24/10^6 cells), FIG. 3A): only a marginal effect on viral production; inhibition at 0.1 µM [5]: > 90%; activity at 0.1 µM ([5]; relative to drug free control, read-out: Translocation Index): < 10%
